The assay concerns P388 leukemia ip, CD2F1 mice, survival T/C. The assay can be described thus: NCI In Vivo Anticancer Drug Screen. Data for tumor model P388 Leukemia (intraperitoneal) in CD2F1 (CDF1) mice. The conditions noted are these: endpoint: median survival time, higher = longer survival. The procedure, abridged: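 Mice carrying the transplanted tumor received test compound or vehicle. Survival was recorded in each group, and the value is the treated-group measurement divided by that of the vehicle-treated control group.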

Setting [1] is: dose: 60.0 mg/kg/injection, schedule: Q01DX005 (ip), vehicle: saline with Tween-80.
Where [2] appears, read: dose: 120.0 mg/kg/injection, schedule: Q01DX005 (ip), vehicle: saline with Tween-80.
The mark [3] stands for this setting: dose: 240.0 mg/kg/injection, schedule: Q01DX005 (ip), vehicle: saline with Tween-80.
[4] abbreviates: dose: 50.0 mg/kg/injection, schedule: Q01DX005 (ip), vehicle: Klucel (hydroxypropylcellulose) (HPC).
[5] abbreviates: dose: 100.0 mg/kg/injection, schedule: Q01DX005 (ip), vehicle: Klucel (hydroxypropylcellulose) (HPC).
Where [6] appears, read: dose: 200.0 mg/kg/injection, schedule: Q01DX005 (ip), vehicle: Klucel (hydroxypropylcellulose) (HPC).
[7] abbreviates: dose: 50.0 mg/kg/injection, schedule: Q01DX009 (ip), vehicle: saline with Tween-80.
[8] abbreviates: dose: 100.0 mg/kg/injection, schedule: Q01DX009 (ip), vehicle: saline with Tween-80.
The mark [9] stands for this setting: dose: 200.0 mg/kg/injection, schedule: Q01DX009 (ip), vehicle: saline with Tween-80.
Setting [10] is: dose: 50.0 mg/kg/injection, schedule: Q01DX005 (ip), vehicle: saline with Tween-80.
Setting [11] is: dose: 100.0 mg/kg/injection, schedule: Q01DX005 (ip), vehicle: saline with Tween-80.
Where [12] appears, read: dose: 200.0 mg/kg/injection, schedule: Q01DX005 (ip), vehicle: saline with Tween-80.

“And” between values parts separate entries of the source, which are not always exact repeats. Equal values may be shown once. Toxic doses and inconclusive results are not listed.

Take `CC(=O)NC(Cc1ccc(N(CCCl)CCCl)cc1)C(=O)NC(CC(C)C)C(=O)O` (stereo not drawn): the T/C was 100 % of control (dose: 5.0 mg/kg/injection, schedule: Q04DX003 (ip), vehicle: water); 111 % of control (dose: 8.4 mg/kg/injection, schedule: Q04DX003 (ip), vehicle: saline with Tween-80); 95 % of control (dose: 10.0 mg/kg/injection, schedule: Q04DX003 (ip), vehicle: water); 121 % of control (dose: 18.9 mg/kg/injection, schedule: Q04DX003 (ip), vehicle: saline with Tween-80); 118 % of control (dose: 20.0 mg/kg/injection, schedule: Q04DX003 (ip), vehicle: water); 173 % of control (dose: 42.6 mg/kg/injection, schedule: Q04DX003 (ip), vehicle: saline with Tween-80). For the same compound, the T/C was 166 % of control (dose: 64.0 mg/kg/injection, schedule: Q04DX003 (ip), vehicle: saline with Tween-80) and 180 % of control (dose: 96.0 mg/kg/injection, schedule: Q04DX003 (ip), vehicle: saline with Tween-80).

Consider `CC(=O)/C(C(=N)C(=O)c1ccccc1)=C(\C)O`, for which the T/C runs as follows: under setting [1], 96 % of control; under setting [2], 98 % of control; under setting [3], 99 % of control.

`CCCCCCCCCC(O)C(O)C1CCC(C2CCC(C(O)CCCCCCCCCCCCC3=CC(C)OC3=O)O2)O1` (stereo not drawn): the T/C was 103 % of control and 97 % of control (dose: 0.35 mg/kg/injection, schedule: Q01DX005 (ip), vehicle: Klucel (hydroxypropylcellulose) (HPC)); 100 % of control and 99 % of control (dose: 0.7 mg/kg/injection, schedule: Q01DX005 (ip), vehicle: Klucel (hydroxypropylcellulose) (HPC)); 112 % of control and 100 % of control (dose: 1.4 mg/kg/injection, schedule: Q01DX005 (ip), vehicle: Klucel (hydroxypropylcellulose) (HPC)); 106 % of control and 113 % of control (dose: 2.8 mg/kg/injection, schedule: Q01DX005 (ip), vehicle: Klucel (hydroxypropylcellulose) (HPC)).

In the case of `CC1=C(C(=O)CC(=O)C(=O)Nc2ccc(Cl)cc2Cl)Sc2ccccc2N1`, the T/C is, setting by setting: under setting [1], 100 % of control; under setting [2], 100 % of control.

Consider `CN1C(=O)/C(=C2\SC(=O)N(CN3CCCCC3)C2=O)c2ccccc21`, for which the T/C runs as follows: under setting [4], 92 % of control; under setting [5], 100 % of control; under setting [6], 99 % of control.

Turning to `CCCN1COC(OCCN(CC)CC)C(C)(C)C1` (stereo not drawn), the T/C is 108 % of control under setting [7], 113 % of control under setting [8] and 107 % of control under setting [9].

Take `CCOC(=O)C1=C(C)/C(=C/c2[n-]c(Cl)c(C)c2C(=O)OCC)N=C1C.CCOC(=O)C1=C(C)/C(=C/c2[n-]c(Cl)c(C)c2C(=O)OCC)N=C1C.[Co+3]`: the T/C under setting [4] is 88 % of control, the T/C under setting [5] is 98 % of control and the T/C under setting [6] was 108 % of control.

As for `C(CCc1nnc2c(n1)CCCC2)Cc1nnc2c(n1)CCCC2`, the T/C was 99 % of control under setting [1] and 88 % of control under setting [2].

`O=C(CBr)Nc1c(Br)cc(Cl)cc1Br`: the T/C under setting [7] was 100 % of control, the T/C under setting [8] was 88 % of control and the T/C under setting [9] was 100 % of control.

`O=C1C[C@@H]2OC3=C(C(=O)CCC3)[C@@H]2O1`: the T/C is 102 % of control (dose: 60.0 mg/kg/injection, schedule: Q01DX005 (ip), vehicle: saline); 121 % of control (dose: 120.0 mg/kg/injection, schedule: Q01DX005 (ip), vehicle: saline); 119 % of control (dose: 240.0 mg/kg/injection, schedule: Q01DX005 (ip), vehicle: saline).

Turning to `CCN(CC)CCNc1ccc(COC(=O)NC)c2oc3ccc(OC(=O)NC)cc3c(=O)c12`, the T/C (dose: 3.13 mg/kg/injection, schedule: Q01DX005 (ip), vehicle: Klucel (hydroxypropylcellulose) (HPC)) was 123 % of control.

Turning to `c1ccc2c(c1)C(=NCCCN1CCCCCC1)c1cccn1-2`, the T/C is, setting by setting: under setting [10], 100 % of control; under setting [11], 100 % of control; under setting [12], 100 % of control.

With `Cc1cc(C(O)(C(F)(F)F)C(F)(F)F)cc(C(O)(C(F)(F)F)C(F)(F)F)c1`, the T/C is 100 % of control under setting [4], 91 % of control under setting [5] and 97 % of control under setting [6].

In the case of `CCSSC1(C)C(=O)N2CCCC2C(=O)N1C` (stereo not drawn), the T/C by setting is: (dose: 25.0 mg/kg/injection, schedule: Q04DX003 (ip), vehicle: saline) 109 % of control; (dose: 50.0 mg/kg/injection, schedule: Q04DX003 (ip), vehicle: saline) 103 % of control; (dose: 100.0 mg/kg/injection, schedule: Q04DX003 (ip), vehicle: saline) 104 % of control.

Take `S=c1nc(-c2ccccc2)[nH]c(=S)[nH]1`: the T/C (dose: 100.0 mg/kg/injection, schedule: Q01DX001 (ip), vehicle: Klucel (hydroxypropylcellulose) (HPC)) is 99 % of control; the T/C (dose: 200.0 mg/kg/injection, schedule: Q01DX001 (ip), vehicle: Klucel (hydroxypropylcellulose) (HPC)) is 106 % of control; the T/C (dose: 400.0 mg/kg/injection, schedule: Q01DX001 (ip), vehicle: Klucel (hydroxypropylcellulose) (HPC)) is 92 % of control.

`Cc1ccc(C2(C(=O)O)CC2)cc1`: the T/C reads like this: under setting [8], 100 % of control; under setting [9], 100 % of control; (dose: 400.0 mg/kg/injection, schedule: Q01DX009 (ip), vehicle: saline with Tween-80) 90 % of control.

In the case of `S=C(SCc1c(Cl)cccc1Cl)N1CCSCC1`, the T/C under setting [1] is 102 % of control, the T/C under setting [2] was 93 % of control and the T/C under setting [3] was 96 % of control.

In the case of `N=C(N)c1ccc(OCCCCOc2ccc(N)cc2Cl)cc1`, the T/C (dose: 30.0 mg/kg/injection, schedule: Q01DX005 (ip), vehicle: saline with Tween-80) was 102 % of control; the T/C under setting [1] is 106 % of control and 97 % of control; the T/C under setting [2] was 105 % of control.

With `C=C(C)C1CC/C(C)=C/CCC2(C)OC2CC/C(CO)=C\C1O` (stereo not drawn), the T/C by setting is: (dose: 8.0 mg/kg/injection, schedule: Q01DX009 (ip), vehicle: saline with Tween-80) 113 % of control; (dose: 16.0 mg/kg/injection, schedule: Q01DX009 (ip), vehicle: saline with Tween-80) 114 % of control; (dose: 32.0 mg/kg/injection, schedule: Q01DX009 (ip), vehicle: saline with Tween-80) 110 % of control; (dose: 64.0 mg/kg/injection, schedule: Q01DX009 (ip), vehicle: saline with Tween-80) 115 % of control.

In the case of `CCN(CC)Cc1cc(Nc2cc(Cl)c3ccc(N(C)C)cc3n2)ccc1O`, the T/C by setting is: (dose: 12.5 mg/kg/injection, schedule: Q01DX009 (ip), vehicle: saline) 110 % of control; (dose: 25.0 mg/kg/injection, schedule: Q01DX009 (ip), vehicle: saline) 110 % of control; (dose: 50.0 mg/kg/injection, schedule: Q01DX009 (ip), vehicle: saline) 109 % of control and 110 % of control.

For `CC1OC(OCc2ccc(-c3ccccc3)cc2)CC(N)C1O` (stereo not drawn), the T/C (dose: 1.56 mg/kg/injection, schedule: Q01DX009 (ip), vehicle: water) is 99 % of control; the T/C (dose: 3.13 mg/kg/injection, schedule: Q01DX009 (ip), vehicle: water) was 104 % of control; the T/C (dose: 6.25 mg/kg/injection, schedule: Q01DX009 (ip), vehicle: water) was 107 % of control; the T/C (dose: 12.5 mg/kg/injection, schedule: Q01DX009 (ip), vehicle: water) was 108 % of control; the T/C (dose: 25.0 mg/kg/injection, schedule: Q01DX009 (ip), vehicle: water) is 98 % of control.

With `CS(=O)(=O)/N=C/N(CCc1ccccc1)c1ccccc1`, the T/C was 101 % of control (dose: 60.0 mg/kg/injection, schedule: Q01DX005 (ip), vehicle: Klucel (hydroxypropylcellulose) (HPC)); 99 % of control (dose: 120.0 mg/kg/injection, schedule: Q01DX005 (ip), vehicle: Klucel (hydroxypropylcellulose) (HPC)); 99 % of control (dose: 240.0 mg/kg/injection, schedule: Q01DX005 (ip), vehicle: Klucel (hydroxypropylcellulose) (HPC)).

With `Nc1nc(SCc2ccccc2Cl)c2[nH]cnc2n1`, the T/C (dose: 100.0 mg/kg/injection, schedule: Q04DX003 (ip), vehicle: saline with Tween-80) is 100 % of control.

Turning to `[N-]=[N+]=NCCN(Cc1ccccc1)Cc1ccccc1`, the T/C reads like this: under setting [10], 104 % of control; under setting [11], 104 % of control; under setting [12], 114 % of control.

Turning to `CCC1(c2ccccc2)C(=O)c2ccccc2C1=O`, the T/C runs as follows: (dose: 100.0 mg/kg/injection, schedule: Q04DX002 (ip), vehicle: saline) 101 % of control; (dose: 200.0 mg/kg/injection, schedule: Q04DX002 (ip), vehicle: saline) 102 % of control; (dose: 400.0 mg/kg/injection, schedule: Q04DX002 (ip), vehicle: saline) 105 % of control.

The record behind these values is PubChem BioAssay AID330 (DTP/NCI, 2004).
